From ChEMBL document CHEMBL1201862, “PubChem BioAssay data set” (2004)
The source made the active and inactive calls.

Experiments:
[1] = THP-1 cell cytotoxicity, dose response, cytotoxicity control for non-replicating M. tuberculosis project (AID 489025); type: functional
[2] = Vero E6 cell cytotoxicity, dose response, cytotoxicity control for non-replicating M. tuberculosis project, secondary assay (AID 492998); type: functional, VeroE6; settings: Vero C1008
[3] = cells; type: functional
[4] = target: SWI/SNF-related matrix-associated actin-dependent regulator of chromatin subfamily A member 2 (Homo sapiens, UniProt P51531); assay: Luminescence-based cell-based high throughput dose response assay to identify activators of the function of SWI/SNF related, matrix associated, actin dependent regulator of chromatin, subfamily a, member 2 (SMARCA2, BRM).; type: functional
Chain of SWI/SNF-related matrix-associated actin-dependent regulator of chromatin subfamily A member 2 (P51531 whole entry): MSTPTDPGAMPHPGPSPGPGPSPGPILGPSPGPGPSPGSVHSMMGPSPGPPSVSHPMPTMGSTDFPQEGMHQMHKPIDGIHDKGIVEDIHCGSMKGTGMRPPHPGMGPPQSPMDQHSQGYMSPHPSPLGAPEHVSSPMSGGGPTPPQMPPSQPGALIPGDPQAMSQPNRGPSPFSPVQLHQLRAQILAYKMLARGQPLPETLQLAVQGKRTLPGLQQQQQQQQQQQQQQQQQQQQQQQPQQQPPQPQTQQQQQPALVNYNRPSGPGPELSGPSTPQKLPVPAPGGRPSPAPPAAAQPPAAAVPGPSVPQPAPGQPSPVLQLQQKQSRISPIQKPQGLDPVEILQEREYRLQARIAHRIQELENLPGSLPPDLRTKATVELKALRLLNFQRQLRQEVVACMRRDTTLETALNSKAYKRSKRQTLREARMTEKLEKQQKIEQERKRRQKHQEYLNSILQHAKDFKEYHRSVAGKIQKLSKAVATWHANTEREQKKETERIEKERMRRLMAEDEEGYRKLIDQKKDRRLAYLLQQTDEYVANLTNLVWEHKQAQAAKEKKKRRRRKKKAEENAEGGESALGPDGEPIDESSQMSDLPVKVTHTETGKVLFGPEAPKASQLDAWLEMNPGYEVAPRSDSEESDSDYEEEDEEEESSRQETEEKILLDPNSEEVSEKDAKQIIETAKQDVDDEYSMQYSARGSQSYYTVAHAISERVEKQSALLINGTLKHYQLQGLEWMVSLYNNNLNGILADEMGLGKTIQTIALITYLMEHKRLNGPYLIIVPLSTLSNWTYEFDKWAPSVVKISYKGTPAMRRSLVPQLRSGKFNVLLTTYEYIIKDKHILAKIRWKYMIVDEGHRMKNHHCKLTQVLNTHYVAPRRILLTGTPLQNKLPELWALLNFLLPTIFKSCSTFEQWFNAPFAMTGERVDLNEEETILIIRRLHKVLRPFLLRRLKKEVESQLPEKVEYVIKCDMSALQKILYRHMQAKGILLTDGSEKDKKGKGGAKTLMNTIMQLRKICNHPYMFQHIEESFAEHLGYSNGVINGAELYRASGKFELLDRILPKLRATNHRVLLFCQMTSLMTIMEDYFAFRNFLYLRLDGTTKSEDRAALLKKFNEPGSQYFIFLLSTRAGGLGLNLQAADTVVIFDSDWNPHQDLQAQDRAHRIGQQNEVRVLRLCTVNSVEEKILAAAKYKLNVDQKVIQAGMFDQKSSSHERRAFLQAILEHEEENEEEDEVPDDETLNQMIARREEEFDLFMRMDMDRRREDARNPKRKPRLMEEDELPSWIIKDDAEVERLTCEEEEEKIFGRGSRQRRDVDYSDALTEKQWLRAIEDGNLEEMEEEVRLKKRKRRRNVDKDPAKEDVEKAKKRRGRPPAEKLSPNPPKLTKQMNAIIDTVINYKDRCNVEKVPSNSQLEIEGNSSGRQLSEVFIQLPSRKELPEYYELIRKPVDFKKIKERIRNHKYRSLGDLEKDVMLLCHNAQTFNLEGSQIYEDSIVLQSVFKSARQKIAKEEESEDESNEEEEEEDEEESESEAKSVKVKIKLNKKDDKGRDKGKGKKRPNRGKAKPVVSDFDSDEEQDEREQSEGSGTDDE

[5] = Counterscreen for activators of the function of SWI/SNF related, matrix associated, actin dependent regulator of chromatin, subfamily a, member 2 (SMARCA2, BRM): Luminescence-based cell-based high throughput dose response assay to identify non-selective compounds using the VP16 reporter assay.; type: functional
[6] = target: SUMO E1/E2 (Homo sapiens, UniProt P63279+Q9UBE0+Q9UBT2); assay: SAR analysis of SUMOylation using HTRF in an in-Vitro dose response assay. [Related pubchem assays (depositor defined):AID2006, AID2011, AID2018, AID2069, AID2658]; type: functional
Chain of SUMO E1/E2 (Q9UBE0 whole entry): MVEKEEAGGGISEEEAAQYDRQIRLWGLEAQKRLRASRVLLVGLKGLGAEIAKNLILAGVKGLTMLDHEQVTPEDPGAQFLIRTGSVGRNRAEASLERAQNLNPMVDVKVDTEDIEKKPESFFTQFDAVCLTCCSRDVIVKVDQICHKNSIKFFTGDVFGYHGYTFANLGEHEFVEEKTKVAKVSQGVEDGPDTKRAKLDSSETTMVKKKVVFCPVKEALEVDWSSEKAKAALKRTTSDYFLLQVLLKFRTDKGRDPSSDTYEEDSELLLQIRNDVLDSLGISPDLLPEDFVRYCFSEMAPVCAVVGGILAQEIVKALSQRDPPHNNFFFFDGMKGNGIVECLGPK
Chain of SUMO E1/E2 (Q9UBT2 whole entry): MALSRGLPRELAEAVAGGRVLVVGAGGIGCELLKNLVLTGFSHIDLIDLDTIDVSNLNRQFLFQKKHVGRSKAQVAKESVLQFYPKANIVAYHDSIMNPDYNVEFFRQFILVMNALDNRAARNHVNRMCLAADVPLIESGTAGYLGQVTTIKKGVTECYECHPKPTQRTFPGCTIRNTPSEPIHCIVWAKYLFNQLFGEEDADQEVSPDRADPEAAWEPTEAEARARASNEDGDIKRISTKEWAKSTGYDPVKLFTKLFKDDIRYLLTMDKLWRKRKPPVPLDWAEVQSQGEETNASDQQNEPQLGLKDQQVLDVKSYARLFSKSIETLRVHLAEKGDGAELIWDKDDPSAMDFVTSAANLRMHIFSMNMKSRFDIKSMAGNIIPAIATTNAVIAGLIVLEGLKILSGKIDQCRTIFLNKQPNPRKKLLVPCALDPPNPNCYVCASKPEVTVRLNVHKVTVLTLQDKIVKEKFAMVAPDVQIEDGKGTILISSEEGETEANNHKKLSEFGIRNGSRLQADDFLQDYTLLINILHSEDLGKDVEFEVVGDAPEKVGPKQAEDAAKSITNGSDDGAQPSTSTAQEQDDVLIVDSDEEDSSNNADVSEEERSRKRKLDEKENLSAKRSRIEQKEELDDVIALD
Chain of SUMO E1/E2 (P63279 whole entry): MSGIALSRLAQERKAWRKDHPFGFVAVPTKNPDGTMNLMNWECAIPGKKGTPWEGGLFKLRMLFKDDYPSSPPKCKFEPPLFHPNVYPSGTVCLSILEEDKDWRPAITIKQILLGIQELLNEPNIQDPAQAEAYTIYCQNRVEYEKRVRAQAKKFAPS

[7] = target: T1, Exodeoxyribonuclease V (Escherichia coli (strain K12), UniProt P04993+P07648+P08394); assay: E. coli RecBCD inhibitors, dose response, counter-screen for AddAB inhibitor project, absorbance, V66 E. coli, mutant T4 phage (AID 492957); type: functional, cell-based, Escherichia coli str. K-12 substr. MG1655
T1 sequence (P04993 whole entry): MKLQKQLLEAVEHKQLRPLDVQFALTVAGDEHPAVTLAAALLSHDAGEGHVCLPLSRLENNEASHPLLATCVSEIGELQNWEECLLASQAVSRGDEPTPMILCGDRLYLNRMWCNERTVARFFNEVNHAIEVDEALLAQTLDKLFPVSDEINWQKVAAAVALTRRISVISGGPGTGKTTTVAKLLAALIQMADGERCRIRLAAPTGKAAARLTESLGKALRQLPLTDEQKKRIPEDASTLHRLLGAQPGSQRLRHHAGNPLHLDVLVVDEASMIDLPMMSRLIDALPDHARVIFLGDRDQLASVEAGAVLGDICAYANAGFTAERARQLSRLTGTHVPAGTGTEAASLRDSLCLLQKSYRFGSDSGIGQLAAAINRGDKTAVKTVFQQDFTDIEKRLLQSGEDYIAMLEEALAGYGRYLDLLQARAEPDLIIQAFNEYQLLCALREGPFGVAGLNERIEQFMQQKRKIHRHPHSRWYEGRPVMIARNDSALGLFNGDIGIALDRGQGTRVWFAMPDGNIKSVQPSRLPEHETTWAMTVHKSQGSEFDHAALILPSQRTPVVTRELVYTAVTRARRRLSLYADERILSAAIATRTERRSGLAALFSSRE
T1 sequence (P07648 whole entry): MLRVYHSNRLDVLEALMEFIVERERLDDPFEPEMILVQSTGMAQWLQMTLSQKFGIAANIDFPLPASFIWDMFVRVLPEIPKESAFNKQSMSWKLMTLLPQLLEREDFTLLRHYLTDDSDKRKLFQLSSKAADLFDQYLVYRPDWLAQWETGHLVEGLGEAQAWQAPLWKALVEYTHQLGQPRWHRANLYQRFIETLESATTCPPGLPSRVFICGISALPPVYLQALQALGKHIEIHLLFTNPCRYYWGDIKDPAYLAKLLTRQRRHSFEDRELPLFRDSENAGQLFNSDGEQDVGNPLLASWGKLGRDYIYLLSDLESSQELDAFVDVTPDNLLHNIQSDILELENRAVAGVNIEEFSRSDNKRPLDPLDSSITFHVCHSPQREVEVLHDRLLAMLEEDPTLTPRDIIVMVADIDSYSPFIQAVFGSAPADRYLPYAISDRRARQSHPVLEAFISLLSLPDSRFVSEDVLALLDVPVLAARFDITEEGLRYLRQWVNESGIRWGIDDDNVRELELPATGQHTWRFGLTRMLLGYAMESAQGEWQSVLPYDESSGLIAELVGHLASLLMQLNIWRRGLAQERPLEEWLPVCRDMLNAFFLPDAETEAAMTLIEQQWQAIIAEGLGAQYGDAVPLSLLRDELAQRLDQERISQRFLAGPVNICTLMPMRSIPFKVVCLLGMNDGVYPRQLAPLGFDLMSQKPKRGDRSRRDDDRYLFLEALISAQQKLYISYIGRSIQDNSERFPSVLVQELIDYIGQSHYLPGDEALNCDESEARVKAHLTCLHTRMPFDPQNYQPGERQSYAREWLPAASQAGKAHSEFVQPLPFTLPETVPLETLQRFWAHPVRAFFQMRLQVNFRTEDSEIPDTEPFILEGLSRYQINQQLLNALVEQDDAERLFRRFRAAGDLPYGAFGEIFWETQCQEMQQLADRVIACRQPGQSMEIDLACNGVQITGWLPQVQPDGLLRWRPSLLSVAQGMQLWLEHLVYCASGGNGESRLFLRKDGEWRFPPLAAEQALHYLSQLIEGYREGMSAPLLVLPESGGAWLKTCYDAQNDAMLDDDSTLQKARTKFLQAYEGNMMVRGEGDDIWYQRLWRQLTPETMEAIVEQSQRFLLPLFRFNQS
T1 sequence (P08394 whole entry): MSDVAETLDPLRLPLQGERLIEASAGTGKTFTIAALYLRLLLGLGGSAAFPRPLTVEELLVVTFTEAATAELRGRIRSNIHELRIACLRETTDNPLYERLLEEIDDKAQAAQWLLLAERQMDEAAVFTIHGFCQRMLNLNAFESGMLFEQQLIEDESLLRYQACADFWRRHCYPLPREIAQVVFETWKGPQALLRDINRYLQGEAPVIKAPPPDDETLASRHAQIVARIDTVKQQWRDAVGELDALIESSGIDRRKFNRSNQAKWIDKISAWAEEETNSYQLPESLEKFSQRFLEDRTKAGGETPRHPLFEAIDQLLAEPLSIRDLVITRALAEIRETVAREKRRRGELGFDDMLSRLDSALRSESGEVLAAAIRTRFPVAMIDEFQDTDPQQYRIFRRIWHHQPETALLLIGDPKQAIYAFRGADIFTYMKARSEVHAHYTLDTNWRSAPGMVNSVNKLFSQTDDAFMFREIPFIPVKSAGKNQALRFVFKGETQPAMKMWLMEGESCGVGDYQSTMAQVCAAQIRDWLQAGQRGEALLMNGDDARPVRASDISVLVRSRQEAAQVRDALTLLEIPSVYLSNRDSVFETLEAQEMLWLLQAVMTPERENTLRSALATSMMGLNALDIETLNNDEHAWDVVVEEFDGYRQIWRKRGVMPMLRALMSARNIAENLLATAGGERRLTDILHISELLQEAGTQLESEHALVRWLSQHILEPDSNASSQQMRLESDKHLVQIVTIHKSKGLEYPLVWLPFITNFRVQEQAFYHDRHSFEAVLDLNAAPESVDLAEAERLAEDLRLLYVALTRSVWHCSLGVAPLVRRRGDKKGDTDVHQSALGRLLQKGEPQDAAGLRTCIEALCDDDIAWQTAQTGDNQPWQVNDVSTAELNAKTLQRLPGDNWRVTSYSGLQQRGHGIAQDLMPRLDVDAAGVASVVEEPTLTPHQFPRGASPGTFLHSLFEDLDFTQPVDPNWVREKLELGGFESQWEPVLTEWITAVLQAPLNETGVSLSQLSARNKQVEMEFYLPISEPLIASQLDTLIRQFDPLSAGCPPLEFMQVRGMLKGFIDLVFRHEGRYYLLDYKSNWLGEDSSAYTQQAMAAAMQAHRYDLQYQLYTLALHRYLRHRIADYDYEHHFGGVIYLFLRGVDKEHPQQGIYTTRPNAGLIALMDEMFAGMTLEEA

[8] = Counterscreen for AddAB inhibitors: absorbance-based bacterial cell-based high throughput dose response assay for inhibitors of bacterial viability. [Related pubchem assays (depositor defined):AID435030, AID449728, AID449731, AID488942, AID488955, AID488956]; type: functional
[9] = inhibitors of firefly luciferase expression or activity, dose response, H4 neuroglioma cells, luminescence (AID 1990); type: functional, cell-based
[10] = cells; type: functional, cell-based
[11] = Luminescence Cell-Based Dose Response HTS to Identify Inhibitors of 5'UTR Stem-Loop Driven Prion Protein mRNA Translation in H4 Neuroglioblastoma Cells. [Related pubchem assays: 1827 (Project Summary), 1813 (Primary HTS)]; type: functional
[12] = inhibitors of SNCA 5'UTR-driven reporter translation, confirmation, H4 neuroglioma cells, luminescence (AID 1988); type: functional, cell-based
[13] = cells; type: functional, cell-based; remark: listed apart in the source
[14] = target: Delta-type opioid receptor (Homo sapiens, UniProt P41143); assay: Counterscreen for agonists of heterodimerization of the mu 1 (OPRM1) and delta 1 (OPRD1) opioid receptors: Luminescence-based cell-based high throughput dose response assay to identify agonists of OPRD1 homodimerization. [Related pubchem assays (depositor defined):AID504326, AID504355, AID504692, AID504904, AID504905]; type: functional
Chain of Delta-type opioid receptor (P41143 whole entry): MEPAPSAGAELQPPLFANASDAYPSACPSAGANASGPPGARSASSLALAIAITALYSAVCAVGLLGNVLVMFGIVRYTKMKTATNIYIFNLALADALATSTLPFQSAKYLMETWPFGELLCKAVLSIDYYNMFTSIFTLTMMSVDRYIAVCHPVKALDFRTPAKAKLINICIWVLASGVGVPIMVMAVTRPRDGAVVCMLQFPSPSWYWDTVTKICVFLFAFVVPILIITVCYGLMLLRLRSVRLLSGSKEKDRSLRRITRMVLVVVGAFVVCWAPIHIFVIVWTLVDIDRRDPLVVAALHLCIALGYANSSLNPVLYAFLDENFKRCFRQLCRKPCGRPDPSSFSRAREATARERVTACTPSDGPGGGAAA

[15] = target: Mu-type opioid receptor (Homo sapiens, UniProt P35372); assay: Counterscreen for agonists of heterodimerization of the mu 1 (OPRM1) and delta 1 (OPRD1) opioid receptors: Luminescence-based cell-based high throughput dose response assay to identify agonists of OPRM1 homodimerization.; type: functional;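 further: U2OS cells expressing OPRM1 and beta-arrestin as split beta-galactosidase partners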
Chain of Mu-type opioid receptor (P35372 whole entry): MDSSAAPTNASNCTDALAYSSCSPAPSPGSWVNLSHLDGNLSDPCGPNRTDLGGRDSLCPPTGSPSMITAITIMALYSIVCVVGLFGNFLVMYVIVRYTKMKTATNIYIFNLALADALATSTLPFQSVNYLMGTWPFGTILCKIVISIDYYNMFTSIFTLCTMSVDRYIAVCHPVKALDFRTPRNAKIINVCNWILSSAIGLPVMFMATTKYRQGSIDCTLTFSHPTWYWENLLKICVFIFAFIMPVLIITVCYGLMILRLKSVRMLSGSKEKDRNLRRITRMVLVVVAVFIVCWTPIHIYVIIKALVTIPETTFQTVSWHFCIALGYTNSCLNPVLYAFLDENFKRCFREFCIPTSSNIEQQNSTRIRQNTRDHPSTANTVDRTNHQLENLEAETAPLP

[16] = target: 5-hydroxytryptamine receptor 5A (Homo sapiens, UniProt P47898); assay: Counterscreen for agonists of OPRM1-OPRD1 heterodimerization: luminescence-based cell-based high throughput dose response assay to identify agonists of 5-hydroxytryptamine (serotonin) 5A receptor (HTR5A). [Related pubchem assays (depositor defined):AID504326, AID504355, AID504692, AID504904, AID504905]; type: functional
[17] = target: Cytochrome P450 3A4 (Homo sapiens, UniProt P08684);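 further: CYP3A4 tested as one member of a cytochrome P450 panel screen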
Chain of Cytochrome P450 3A4 (P08684 whole entry): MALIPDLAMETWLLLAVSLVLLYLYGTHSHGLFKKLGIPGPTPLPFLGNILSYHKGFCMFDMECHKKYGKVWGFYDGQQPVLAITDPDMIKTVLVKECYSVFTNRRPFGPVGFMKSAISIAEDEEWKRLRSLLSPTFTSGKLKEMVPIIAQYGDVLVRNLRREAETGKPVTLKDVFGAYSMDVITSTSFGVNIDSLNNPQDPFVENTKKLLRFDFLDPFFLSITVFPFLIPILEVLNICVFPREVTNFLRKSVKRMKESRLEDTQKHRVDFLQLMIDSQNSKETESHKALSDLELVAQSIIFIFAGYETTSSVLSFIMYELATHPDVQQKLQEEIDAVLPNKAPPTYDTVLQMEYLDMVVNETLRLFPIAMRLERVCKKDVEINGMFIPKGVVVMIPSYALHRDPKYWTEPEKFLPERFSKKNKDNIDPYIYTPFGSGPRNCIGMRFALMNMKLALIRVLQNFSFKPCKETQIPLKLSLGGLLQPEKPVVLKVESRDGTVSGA

[18] = target: Cytochrome P450 2D6 (Homo sapiens, UniProt P10635);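 further: CYP2D6 member of a cytochrome P450 panel assay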
Chain of Cytochrome P450 2D6 (P10635 whole entry): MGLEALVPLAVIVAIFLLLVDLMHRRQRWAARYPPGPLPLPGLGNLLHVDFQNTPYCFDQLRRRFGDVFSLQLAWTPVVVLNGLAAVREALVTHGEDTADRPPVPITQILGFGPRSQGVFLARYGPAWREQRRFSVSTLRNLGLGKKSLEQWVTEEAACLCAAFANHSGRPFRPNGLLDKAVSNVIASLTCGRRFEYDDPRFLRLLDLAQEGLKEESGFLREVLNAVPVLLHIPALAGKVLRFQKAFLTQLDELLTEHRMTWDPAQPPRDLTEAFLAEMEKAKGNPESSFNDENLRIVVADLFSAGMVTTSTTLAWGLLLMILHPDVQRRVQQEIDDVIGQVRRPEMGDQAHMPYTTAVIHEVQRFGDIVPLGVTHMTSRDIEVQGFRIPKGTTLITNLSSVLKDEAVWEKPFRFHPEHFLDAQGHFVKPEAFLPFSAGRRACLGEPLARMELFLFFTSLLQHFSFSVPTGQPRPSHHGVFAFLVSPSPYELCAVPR

[19] = target: Cytochrome P450 2C9 (Homo sapiens, UniProt P11712)
Chain of Cytochrome P450 2C9 (P11712 whole entry): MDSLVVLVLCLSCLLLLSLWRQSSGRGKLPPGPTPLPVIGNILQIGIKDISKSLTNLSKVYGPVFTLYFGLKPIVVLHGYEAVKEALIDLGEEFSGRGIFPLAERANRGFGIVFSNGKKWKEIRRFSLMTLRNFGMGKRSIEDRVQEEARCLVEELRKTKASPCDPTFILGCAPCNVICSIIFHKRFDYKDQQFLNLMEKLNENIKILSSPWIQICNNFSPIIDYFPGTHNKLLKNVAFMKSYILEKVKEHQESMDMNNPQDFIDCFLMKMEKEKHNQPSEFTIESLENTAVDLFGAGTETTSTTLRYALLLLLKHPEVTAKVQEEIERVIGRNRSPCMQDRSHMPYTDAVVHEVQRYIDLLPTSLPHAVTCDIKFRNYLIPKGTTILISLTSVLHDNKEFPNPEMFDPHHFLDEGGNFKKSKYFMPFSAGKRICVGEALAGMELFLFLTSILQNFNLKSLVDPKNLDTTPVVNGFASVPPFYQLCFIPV

[20] = tested on: HEK293; assay: cells; settings: Homo sapiens
[21] = tested on: HEK293; assay: cells; settings: Homo sapiens; remark: listed apart in the source
[22] = inhibitors of intracellular T. cruzi replication, confirmation, NIH3T3 host cells, beta-gal luminescence (AID 2044); type: functional, cell-based;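 further: intracellular parasites grown in NIH/3T3 mouse fibroblasts as host cells; luminescent beta-galactosidase reporter signal from transgenic T. cruzi replicating inside host cells; inhibitors lower the luminescence signal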
[23] = cytotoxicity toward NIH3T3 fibroblasts, dose response, counter-screen, cell-based, ATP luminescence, mouse fibroblasts (AID 2010); type: functional;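 further: cells exposed to compound for about 90 hours before reading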
[24] = tested on: INS1; assay: beta cell apoptosis inhibitors, cytokine rescue, dose response, luminescence, retest (AID 449756); type: functional, cell-based; settings: Rattus norvegicus;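 further: cell death triggered by IL-1 beta plus TNF-alpha plus IFN-gamma mixture; protective hits raise ATP signal compared with cytokine alone wells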
[25] = target: Cytochrome P450 2C19 (Homo sapiens, UniProt P33261); assay: Cytochrome panel assay with activity outcomes. Panel member name: p450-cyp2c19 Compounds with AC50 equal or less than 10 uM are considered active; type: functional; settings: read-out: AC50

CCS(=O)(=O)c1c([N+](=O)[O-])ncn1C
CC50 [1]: > 40 µM (active) | CC50 [2]: > 20 µM (active) | IC50 [3]: 16.2 µM (active) | EC50 [4]: > 91.1 µM (inactive) | EC50 [5]: > 91.1 µM (inactive)

Cc1ccc(C=Nc2ccccc2C(N)=O)s1
IC50 [6]: 22.2 µM (active)

O=C(NC(NC(=S)Nc1ccc(Cl)cc1)C(Cl)(Cl)Cl)c1ccco1 (stereo unspecified)
IC50 [7]: > 119 µM (inactive) | IC50 [8]: > 119 µM (inactive)

Cc1c(Br)c([N+](=O)[O-])nn1C(C)C(=O)NCc1ccco1 (stereo unspecified)
IC50 [7]: > 119 µM (inactive) | IC50 [8]: > 119 µM (inactive)

CC(=O)Nc1nc2ccccc2n1CCOc1ccccc1Cl
EC50 [9]: 16.7 µM (active) | EC50 [10]: > 350 µM (not active) | EC50 [11]: > 120 µM (not active) | EC50 [12]: > 120 µM (not active) | EC50 [13]: 56.5 µM (active) | CC50 [1]: > 40 µM (active) | CC50 [2]: 17.5 µM (active) | IC50 [3]: 2.72 µM (active)

CCNS(=O)(=O)c1ccc(NC(=O)Nc2ccc3c(c2)OCO3)cc1
EC50 [14]: > 92.5 µM (inactive) | EC50 [15]: 42.8 µM (inactive) | EC50 [16]: > 92.5 µM (inactive)

Fc1ccc(C2Nc3ccccc3C3C=CCC32)cc1 (stereo unspecified)
IC50 [6]: > 100 µM (inactive)

CCOC(=O)c1c(C)c(C(=O)NCCN2CCOCC2)c(C)n1CC
AC50 [17]: 25.1 µM (inconclusive) | AC50 [18]: inconclusive | AC50 [19]: inconclusive

CN(C)C(=S)N=c1ssc(=S)n1Cc1ccco1
EC50 [20]: > 59.6 µM (inactive) | EC50 [21]: > 59.6 µM (inactive)

Cc1cc(N/N=C/c2ccc(O)cc2O)nc(-c2ccccc2O)n1
EC50 [10]: > 350 µM (not active) | EC50 [22]: 1.16 µM (active) | EC50 [13]: 8.62 µM (active) | EC50 [23]: 4.8 µM (active) | IC50 [7]: > 119 µM (inactive) | IC50 [8]: > 119 µM (inactive) | AC50 [24]: 0.734 µM (active)

NC(=O)/C(=N\O)c1ccccc1
AC50 [25]: 0.00562 µM (inconclusive) | AC50 [18]: inconclusive
